# Experimental data reported in patent US20130064815A1, “INDUCING APOPTOSIS IN QUIESCENT CELLS” (THE TRUSTEES OF PRINCETON UNIVERSITY, priority 2011, published 2013).
# Entries after “also recorded” stand apart in the source; their conditions may differ.
# How the values were obtained:
# [1] = system: intracellular reduced glutathione; assay: intracellular reduced glutathione by monochlorobimane flow cytometry; type: cell-based, human; details: serum-starved fibroblasts after DHEA treatment
# Protocol: It was tested whether the increase in glutathione reductase activity in serum-starved fibroblasts was associated with elevated levels of reduced glutathione. 7 dSS fibroblasts were focused on because they had the highest activity of the four enzymes in the NADPH production pathway. Flow cytometry was used to monitor the levels of glutathione in proliferating and 7 dSS fibroblasts with monochlorobimane (MCB), a compound that forms blue fluorescent adducts when it reacts with intracellular reduced glutathione (Sebastia et al., “Evaluation of fluorescent dyes for measuring intracellular glutathione content in primary cultures of human neurons and beuroblastoma SH-SY5Y, Cytometry A 51, 16-25, 2003, which is incorporated herein by reference as if fully set forth). […] The results are consistent with a model in which the NADPH production program activated in the serum-starved fibroblasts contributes to a larger pool of reduced glutathione.
# It was expected that the reduction in NADPH levels that resulted from DHEA treatment would result in lower activity of glutathione reductase and thus a decrease in the levels of reduced glutathione. […] The depletion of glutathione in response to DHEA could be an important part of the apoptotic pathway. […]
# [2] = system: four day serum starved fibroblasts; assay: induction of apoptosis in quiescent fibroblasts by DHEA and/or autophagy inhibitor combined with proteasome inhibitors; type: cell-based, human; details: DHEA alone; 48 hour treatment
# Protocol: Referring to FIG. 17, the effect of treatment using DHEA and/or an autophagy inhibitor combined with proteasome inhibitors on apoptosis in quiescent cells was analyzed.
# In this experiment, the proteasome inhibitor, bortezomib, was used in varying concentrations with DHEA during a 48 hour treatment.
# [3] = system: skin papillomas and carcinomas; details: topical 7,12-dimethylbenz(a)anthracene (DMBA), mice; cited from earlier work
# thyroid tumors = details: F344 rats treated with DHPN, then DHEA; cited from earlier work
# P and CI14 fibroblasts = assay: PPP inhibition and PI live/dead analysis by flow cytometry; type: cell-based, human; details: CI14 vs proliferating fibroblasts; 100 μM and 250 μM, four days; p<0.01
# Protocol: The function of the PPP in quiescent and proliferating fibroblasts was tested. Proliferating or CI14 fibroblasts were incubated with DHEA, a small molecule inhibitor of the PPP for four days. The fraction of cells that were dead was monitored with propidium iodide (PI) labeling followed by flow cytometry.
# PPP inhibition and PI live/dead analysis: P and CI14 fibroblasts were treated with dehydroepiandrosterone dissolved in ethanol or dimethylsufoxide (0.1% vol/vol) for four days. On the fourth day of treatment with the inhibitor, cells were trypsinized and collected into conditioned media. Cells were then centrifuged for 5 min at 1000 rpm. The supernatant was aspirated and cells were taken up in PBS with 1 μg/ml PI (VWR, West Chester, Pa.). Cells were kept on ice and immediately analyzed by flow cytometry using a BD LSRII multi-laser analyzer (BD Biosciences, San Jose, Calif.). PI was excited at 488 nm and emitted fluorescence was collected through a 610/20 bandpass filter. At least 40,000 cells were collected and analyzed with FACSDiVa software (BD Biosciences, San Jose, Calif.). PI negative cells were counted as live cells and PI positive cells were counted as dead cells.
# [4] = system: primary human fibroblasts; assay: caspase 3/7 activity apoptosis assay (ApoTox-Glo) in proliferating and quiescent fibroblasts; type: cell-based; details: for apoptosis-inducing effect (caspase-3/7 activity normalized to vehicle): four days treatment
# Protocol: Referring to FIG. 2A, primary human fibroblasts were tested either in a proliferating state or after being induced into quiescence. Quiescence may be induced by either contact inhibition or serum starvation. Cells were treated with DHEA for four days, with bafilomycin added on the fourth day. Apoptosis was assessed based on the activity of caspase 3/7 for a fluorogenic substrate.
# PPP inhibition and apoptosis analysis: Apoptosis was measured based on the levels of caspase 3/7 released into the media using the ApoTox-Glo Triplex Assay according to the manufacturer's instructions (Promega Corp., Madison, Wis.). Cells were plated in triplicate at 10,000 cells per well in white-walled, clear-bottom 96-well plates (Costar, Corning Life Sciences, Lowell, Mass.). For contact inhibition, cells were plated 7 days prior to the start of treatment, for serum starvation cells were plated 4 days prior to treatment and switched to 0.1% serum media for the remaining 3 days, while proliferating cells were plated the day prior to the start of treatment. […] Cells in serum starvation conditions were incubated in 0.1% serum during treatment as well. The apoptosis reagent was added at 100 μl per well and incubated for 1 h prior to reading. Luminescence was read from the top using a Synergy-2 plate reader (Biotek, Winooski, Vt.). Luminescence data were normalized to the vehicle only condition.
# Apoptosis induction was assessed by monitoring caspase 3/7 activity using a luminescent caspase substrate. This assay is optimized for high-throughput screening in 96-well plates and allows multiple concentrations and combination of drugs to be tested in triplicate at different time points. […] Therefore, this assay was used to compare proliferating and serum-starved cells only.
# [5] = system: neoplasms, lymphoblastic lymphoma; details: p53-deficient mouse; cited from earlier work
compound,measurement,setting,value
"C[C@]12CC[C@H](O)CC1=CC[C@@H]1[C@@H]2CC[C@]2(C)C(=O)CC[C@@H]12 [DHEA, dehydroepiandrosterone]",intracellular GSH pools,[1],smaller pools of intracellular GSH
same,increase in apoptosis induction,[2],~2 fold
same,development of skin papillomas and carcinomas,[3],reduced
same,basophilic hepatocellular foci,thyroid tumors,associated with development of basophilic hepatocellular foci
same,development of thyroid tumors,thyroid tumors,decreased development of thyroid tumors
same,cell death (PI labeling),P and CI14 fibroblasts,statistically significant increase in cell death
same,apoptosis-inducing effect (caspase-3/7 activity normalized to vehicle),[4]; fibroblasts confluent 11 days (CI11) vs proliferating,significantly stronger; also recorded: statistically significantly different at all doses except 100 μM
same,apoptosis-inducing effect (caspase-3/7 activity normalized to vehicle),[4]; fibroblasts serum-starved seven days (SS7) vs proliferating,yet stronger; also recorded: particularly sensitive; also recorded: statistically significantly different at all doses
same,caspase induction,[4]; treatment with DHEA alone,6- to 8 fold
same,death due to neoplasms,[5],delay death due to neoplasms
